# Laboratory results: ChEMBL document CHEMBL1201862, “PubChem BioAssay data set” (2004)
#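 Grown in 96-well plates, cells were treated for 48 hours with each compound at five concentrations. Insufficient inhibition: endpoint recorded as highest concentration tested. The concentration for 50% growth inhibition is given as GI50.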 The source made the active and inactive calls. No stated cut-off is given here; in the data, active = GI50 up to about 1.1 µM and inactive = higher.
# Experiments:
# Test in all cases: NCI anticancer screen, dose series, 48 h
# U-251 = tested on: U-251
# NCI-H226 = tested on: NCI-H226
# KM12 = tested on: KM12
# SK-MEL-2 = tested on: SK-MEL-2
# SF-295 = tested on: SF-295
# K562 = tested on: K562
# SNB-75 = tested on: SNB-75
# HOP-62 = tested on: HOP-62
# DMS-114 = tested on: DMS-114
# LOX IMVI = tested on: LOX IMVI
# COLO 205 = tested on: COLO 205
# HCT-116 = tested on: HCT-116
# UACC-62 = tested on: UACC-62
# M19-MEL = tested on: M19-MEL
# SN12C = tested on: SN12C
# DMS-273 = tested on: DMS-273
# HCT-15 = tested on: HCT-15
# HCC 2998 = tested on: HCC 2998
# CCRF-CEM = tested on: CCRF-CEM
# NCI/ADR-RES = tested on: NCI/ADR-RES
# MOLT-4 = tested on: MOLT-4
# RXF 393 = tested on: RXF 393
# A549 = tested on: A549
# UO-31 = tested on: UO-31
# OVCAR-5 = tested on: OVCAR-5
# DLD-1 = tested on: DLD-1
# SK-OV-3 = tested on: SK-OV-3
# A498 = tested on: A498
# SK-MEL-5 = tested on: SK-MEL-5
# HL-60 = tested on: HL-60
# UACC-257 = tested on: UACC-257
# SK-MEL-28 = tested on: SK-MEL-28
# NCI-H23 = tested on: NCI-H23
# HT-29 = tested on: HT-29
# SNB-78 = tested on: SNB-78
# RPMI-8226 = tested on: RPMI-8226
# MCF7 = tested on: MCF7
# IGROV-1 = tested on: IGROV-1
# Malme-3M = tested on: Malme-3M
# NCI-H460 = tested on: NCI-H460
# HOP-18 = tested on: HOP-18
# CAKI-1 = tested on: CAKI-1
# KM-20L2 = tested on: KM-20L2
# SNB-19 = tested on: SNB-19
# OVCAR-4 = tested on: OVCAR-4
# OVCAR-8 = tested on: OVCAR-8
# SW-620 = tested on: SW-620
# SF-268 = tested on: SF-268
# OVCAR-3 = tested on: OVCAR-3
# XF498 = tested on: XF498
# EKVX = tested on: EKVX
# SF-539 = tested on: SF-539
# HOP-92 = tested on: HOP-92
# NCI-H522 = tested on: NCI-H522
structure (smiles),measurement,setting,value
Cc1cc(C(=O)NCCN(C)C)c2nc3ccccc3cc2c1,GI50,U-251,2.69 µM (inactive)
same,GI50,NCI-H226,1.17 µM (inactive)
same,GI50,KM12,2.94 µM (inactive)
same,GI50,SK-MEL-2,2.69 µM (inactive)
same,GI50,SF-295,1.27 µM (inactive)
same,GI50,K562,2.44 µM (inactive)
same,GI50,SNB-75,3.13 µM (inactive)
same,GI50,HOP-62,1.68 µM (inactive)
same,GI50,DMS-114,1.04 µM (active)
same,GI50,LOX IMVI,1.27 µM (inactive)
same,GI50,COLO 205,1.1 µM (active)
same,GI50,HCT-116,0.904 µM (active)
same,GI50,UACC-62,1.52 µM (inactive)
same,GI50,M19-MEL,1.85 µM (inactive)
same,GI50,SN12C,1.59 µM (inactive)
same,GI50,DMS-273,2.31 µM (inactive)
same,GI50,HCT-15,1.65 µM
same,GI50,HCC 2998,3.67 µM (inactive)
same,GI50,CCRF-CEM,1.36 µM (inactive)
same,GI50,NCI/ADR-RES,1.1 µM (active)
same,GI50,MOLT-4,0.381 µM (active)
same,GI50,RXF 393,1.63 µM (inactive)
same,GI50,A549,0.867 µM (active)
same,GI50,UO-31,1.42 µM (inactive)
same,GI50,OVCAR-5,1.98 µM (inactive)
same,GI50,DLD-1,1.96 µM (inactive)
same,GI50,SK-OV-3,2.16 µM (inactive)
same,GI50,A498,1.15 µM (inactive)
same,GI50,SK-MEL-5,1.64 µM (inactive)
same,GI50,HL-60,0.871 µM (active)
same,GI50,UACC-257,2.07 µM (inactive)
same,GI50,SK-MEL-28,3.15 µM (inactive)
same,GI50,NCI-H23,2.3 µM (inactive)
same,GI50,HT-29,1.13 µM (inactive)
same,GI50,SNB-78,4.45 µM (inactive)
same,GI50,RPMI-8226,1.55 µM (inactive)
same,GI50,MCF7,1.55 µM (inactive)
same,GI50,IGROV-1,2.39 µM (inactive)
same,GI50,Malme-3M,1.6 µM (inactive)
same,GI50,NCI-H460,0.372 µM (active)
same,GI50,HOP-18,1.74 µM (inactive)
same,GI50,CAKI-1,0.33 µM (active)
same,GI50,KM-20L2,0.729 µM (active)
same,GI50,SNB-19,2.01 µM (inactive)
same,GI50,OVCAR-4,3.02 µM (inactive)
same,GI50,OVCAR-8,1.25 µM (inactive)
same,GI50,SW-620,0.889 µM (active)
same,GI50,SF-268,2.77 µM (inactive)
same,GI50,OVCAR-3,2.38 µM (inactive)
same,GI50,XF498,1.42 µM (inactive)
same,GI50,EKVX,0.594 µM (active)
same,GI50,SF-539,3.76 µM (inactive)
same,GI50,HOP-92,1.45 µM (inactive)
CC1NC(=O)C(C)C(c2ccccc2)N(N=O)C1c1ccccc1 (stereo unspecified),GI50,U-251,> 100 µM (inactive)
same,GI50,NCI-H226,> 100 µM (inactive)
same,GI50,KM12,74.1 µM (inactive)
same,GI50,SK-MEL-2,> 100 µM (inactive)
same,GI50,SF-295,> 34.7 µM (inactive)
same,GI50,K562,33 µM (inactive)
same,GI50,SNB-75,> 38.3 µM (inactive)
same,GI50,HOP-62,> 87.9 µM (inactive)
same,GI50,DMS-114,48.5 µM (inactive)
same,GI50,LOX IMVI,> 69.5 µM (inactive)
same,GI50,COLO 205,> 63.4 µM (inactive)
same,GI50,HCT-116,> 59 µM (inactive)
same,GI50,NCI-H522,88.9 µM (inactive)
same,GI50,UACC-62,> 88.5 µM (inactive)
same,GI50,SN12C,> 100 µM (inactive)
same,GI50,DMS-273,63 µM (inactive)
same,GI50,HCT-15,55.2 µM
same,GI50,HCC 2998,52.4 µM (inactive)
same,GI50,CCRF-CEM,55.7 µM (inactive)
same,GI50,NCI/ADR-RES,> 69.8 µM (inactive)
same,GI50,MOLT-4,36.8 µM (inactive)
same,GI50,RXF 393,60.7 µM (inactive)
same,GI50,A549,> 100 µM (inactive)
same,GI50,UO-31,> 92.5 µM (inactive)
same,GI50,OVCAR-5,> 100 µM (inactive)
same,GI50,DLD-1,72.1 µM (inactive)
same,GI50,SK-OV-3,28.2 µM (inactive)
same,GI50,A498,12.8 µM (inactive)
same,GI50,SK-MEL-5,> 71.3 µM (inactive)
same,GI50,HL-60,22.9 µM (inactive)
same,GI50,UACC-257,> 100 µM (inactive)
same,GI50,SK-MEL-28,> 100 µM (inactive)
same,GI50,NCI-H23,> 100 µM (inactive)
same,GI50,HT-29,29.2 µM (inactive)
same,GI50,SNB-78,> 100 µM (inactive)
same,GI50,RPMI-8226,33.6 µM (inactive)
same,GI50,MCF7,50 µM (inactive)
same,GI50,IGROV-1,> 81.5 µM (inactive)
same,GI50,Malme-3M,> 100 µM (inactive)
same,GI50,NCI-H460,> 61.7 µM (inactive)
same,GI50,HOP-18,96.8 µM (inactive)
same,GI50,CAKI-1,> 100 µM (inactive)
same,GI50,KM-20L2,> 100 µM (inactive)
same,GI50,SNB-19,> 76.9 µM (inactive)
same,GI50,OVCAR-4,31.3 µM (inactive)
same,GI50,OVCAR-8,> 100 µM (inactive)
same,GI50,SW-620,> 100 µM (inactive)
same,GI50,SF-268,> 100 µM (inactive)
same,GI50,OVCAR-3,> 52.5 µM (inactive)
same,GI50,XF498,29.9 µM (inactive)
same,GI50,EKVX,> 83 µM (inactive)
same,GI50,SF-539,> 100 µM (inactive)
same,GI50,HOP-92,39.7 µM (inactive)
